What was measured:
[1] = tested on: patients with PD and constipation; experiment: Phase 2 trial Stage 2 (daily dosing): bowel function, stool related indices; assay type: in vivo, human
Procedure: (§1) In Stage 2, 34 patients were evaluated.
The primary efficacy outcome variable was whether or not a subject was a “success” or “failure”. This is an endpoint based on subject diary entries for the “fixed dose” period prior to the endpoint assessment defined as average complete stool frequency increase by 1 or more over baseline, or 3 or more complete spontaneous stools/week. The subject was deemed a “success” if s/he met one or more of the criteria listed above, otherwise the subject was deemed a “failure”. The primary analysis was based on all subjects with a baseline assessment and an assessment at the end of the “fixed-dose” period and was a comparison of the proportion of successes with 0.10 (the null hypothesis corresponding to no treatment effect).

[2] = tested on: patients with PD and constipation; experiment: Adverse events, Stage 1; assay type: in vivo, human; details: Stage 1, 10 dosed
Source text: Tolerability limits included diarrhea or vomiting.

[3] = tested on: patients with PD and constipation; experiment: Adverse events, Stage 2; assay type: in vivo, human; details: Stage 2, number of patients
Procedure: as §1

patients with PD [4] = experiment: CNS / neurological symptoms in Stage 2 (UPDRS, MMSE, PDHQ, BDI-II); assay type: in vivo, human; details: during treatment; patients with hallucinations (5) or delusions (1) at baseline
Source text: Exploratory end-points, in addition to constipation, included for example, (i) depression assessed using the Beck Depression Inventory (BDI-II) (Steer et al. 2000) and Unified Parkinson's Disease Rating Scale (UPDRS); (ii) cognition assessed using the Mini Mental State Examination (MMSE) (Palsteia et al. 2018), Unified Parkinson's Disease Rating Scale (UPDRS), and Trail Making Test (TMT); (iii) sleep and REM-behavior disorder (RBD) using a daily sleep diary, I-Button Temperature Assessment, a REM sleep behavior disorder (RBD) questionnaire (RBDQ) (Stiasny-Kolster et al. 2007), and the UPDRS; (iv) hallucinations assessed using the PD hallucinations questionnaire (PDHQ) (Papapetropoulos et al. 2008), the UPDRS, and direct questioning; (v) fatigue using the Parkinson's Disease Fatigue Scale (PFS-16) and the UPDRS; (vi) motor functions using the UPDRS; and (vii) non-motor functions using the UPDRS.
Assessments were made at baseline and at the end of the fixed dose and washout periods. Circadian system status was evaluated by continuously monitoring wrist skin temperature (Thermochron iButton DS1921H; Maxim, Dallas) following published procedures (Sarabia et al. 2008). […]
CNS symptoms were evaluated at baseline and at the end of the fixed dose period and the wash-out period (Table 12). […]

patients with PD [5] = experiment: Circadian rhythm of wrist skin temperature; assay type: in vivo, human; details: for circadian rhythm of wrist skin temperature (IS, IV, RA, CFI): fixed dose vs baseline, 12 evaluable patients
Procedure: (6) I-Button Temperature Assessment. The I-Button is a small, rugged self-sufficient system that measures temperature and records the results in a protected memory section. The Thermochron I-Button DS1921H (Maxim Integrated, Dallas, Tex.) was used for skin temperature measurement. I-Buttons were programmed to sample every 10 mins., and attached to a double-sided cotton sport wrist band using Velcro, with the sensor face of the I-Button placed over the inside of the wrist, on the radial artery of the dominant hand. Subjects removed and replaced the data logger when necessary (i.e., to have a bath or shower). The value of skin temperature assessment in sleep research is that the endogenous skin warming resulting from increased skin blood flow is functionally linked to sleep propensity. From the collected data, the mesor, amplitude, acrophase (time of peak temperature), Rayleight test (an index of interdaily stability), mean waveforms are calculated.);
Circadian rhythm of skin temperature was evaluable in 12 patients (i.e., those who had recordings that extended from baseline through washout). Circadian system functionality was evaluated by continuously monitoring wrist skin temperature using a temperature sensor (Thermochron iButton DS1921H; Maxim, Dallas, Tex.) (Sarabia et al. 2008). A nonparametric analysis was performed for each participant to characterize DST as previously described (Sarabia et al. 2008; Ortiz-Tudela et al. 2010).
Briefly, this analysis includes the following parameters: (i) the inter-daily stability (the constancy of 24-hour rhythmic pattern over days, IS); (ii) intra-daily variability (rhythm fragmentation, IV); (iii) average of 10-minute intervals for the 10 hours with the minimum temperature (L10); (iv) average of 10-minute intervals for the 5 hours with the maximum temperature (M5) and the relative amplitude (RA), which was determined by the difference between M5 and L10, divided by the sum of both. Finally, the Circadian Function Index (CFI) was calculated by integrating IS, IV, and RA. […]

[6] = Pharmacokinetics of orally administered squalamine (ENT-01) in Stage 1; assay type: in vivo; details: human, this study
Procedure: PK data were collected on the 10 patients enrolled in Stage 1 and 10 patients enrolled in Stage 2 to determine the extent of systemic absorption. In Stage 1, PK data were obtained at each visit, pre-medication, at 1, 2, 4, 8 and 24 hours (Table 10). In Stage 2, PK was measured on days 1 and 6 of the randomization period pre-medication, at 1, 2, 4 and 8 hours (Table 11).
The mean Cmax, Tmax and T1/2 and AUC of the squalamine ion following squalamine (ENT-01) oral dosing for Stage 1 patients. The PK analyses are only approximate, as the lower limit of the validated concentration range was 10 ng/ml; most of the measured concentrations fell below that value. The mean Cmax, Tmax and T1/2 and AUC of the squalamine ion following squalamine (ENT-01) oral dosing for Stage 2 patients. The PK analyses are only approximate, as the lower limit of the validated concentration range was 0.5 ng/ml.

mouse models of PD = details: oral; mice with constipation due to overexpression of human αS (West et al, manuscript in preparation); cited from earlier work
[7] = tested on: IPANs (intrinsic primary afferent neuron); details: isolated bowel segment, PD mouse model, luminal perfusion; cited from earlier work
[8] = following systemic administration, in mice; cited from earlier work

CC(C)[C@@H](CC[C@@H](C)[C@H]1CC[C@H]2[C@@H]3[C@H](O)C[C@H]4C[C@@H](NCCCNCCCCN)CC[C@]4(C)[C@H]3CC[C@]12C)OS(=O)(=O)O (single isomer, unassigned) [squalamine (ENT-01), squalamine]
response rate (CSBM within 24 hours of dosing on at least 2 of 3 days) ([1]; Stage 2, daily dosing, at 250 mg (range 75-250 mg)): 85% | SBM, weekly average ([1]; Stage 2, fixed dose, mean (SD), n = 34, baseline 2.6 (1.45)): 4.5 (2.21) /week | Abdominal pain, Mild [2]: 2 (20) n | Abdominal pain, Moderate [2]: 3 (30) n | Blood in urine, Moderate [2]: 0 n | Diarrhea, Mild [2]: 1 (10) n | Diarrhea, Moderate [2]: 3 (30) n | Diarrhea, Severe [2]: 0 n | Difficulty falling asleep, Mild [2]: 0 n | Difficulty falling asleep, Moderate [2]: 0 n | Dizziness, Mild [2]: 0 n | Dizziness, Moderate [2]: 0 n | Eye infection, Mild [2]: 0 n | Eye infection, Moderate [2]: 0 n | Flatulence, Mild [2]: 2 (20) n | Flatulence, Moderate [2]: 0 n | Headache, Mild [2]: 1 (10) n | Headache, Moderate [2]: 0 n | Increased urinary frequency, Mild [2]: 0 n | Increased urinary frequency, Moderate [2]: 0 n | Loss of appetite, Moderate [2]: 0 n | Lower GI bleed, Severe [2]: 0 n | Nausea, Mild [2]: 4 (40) n | Nausea, Moderate [2]: 0 n | Skin lesions-rash, Mild [2]: 0 n | Skin lesions-rash, Moderate [2]: 0 n | Urinary retention, Mild [2]: 0 n | Urinary retention, Moderate [2]: 0 n | Urinary tract infection, Mild [2]: 0 n | Urinary tract infection, Moderate [2]: 0 n | Vomiting, Mild [2]: 1 (10) n | Vomiting, Moderate [2]: 0 n | Worsening acid reflux, Mild [2]: 0 n | Worsening acid reflux, Moderate [2]: 0 n | Worsening hemorrhoid, Mild [2]: 0 n | Worsening hemorrhoid, Moderate [2]: 0 n | Blood in urine, Mild ([2]; unrelated to ENT-01): 1 (10) n | Loss of appetite, Mild ([2]; unrelated to ENT-01): 1 (10) n | patients who withdrew during dosing because of diarrhea [3]: 2 | patients in whom hallucinations and delusions improved or disappeared (patients with PD [4]): 5 of 6 | circadian rhythm of wrist skin temperature (IS, IV, RA, CFI) (patients with PD [5]): significant positive impact | circadian rhythm of wrist skin temperature (IS, IV, RA, CFI) (patients with PD [5]; listed as ENT-01): improved all markers of healthy circadian function | circadian rhythm parameters (IS, CFI) (patients with PD [5]; wash-out period vs baseline): improvement persisted for several of these circadian parameters

CC(C)[C@@H](CC[C@@H](C)[C@H]1CC[C@H]2[C@@H]3[C@H](O)C[C@H]4C[C@@H](NCCCNCCCCN)CC[C@]4(C)[C@H]3CC[C@]12C)OS(=O)(=O)O [squalamine]
systemic absorption following oral administration [6]: not significantly absorbed into the systemic circulation | gastro-intestinal motility (mouse models of PD): stimulates gastro-intestinal motility | effect on IPANs [7]: excitation of IPANs | clearance and excretion [8]: cleared by the liver and excreted as the intact molecule
